Results from PMC12951562, “SH2scan: Mapping SH2 Domain-Ligand Binding Selectivity for Inhibitors and Degraders” (Journal of Medicinal Chemistry, 2026).
Where “and” joins values, the source holds several entries; their conditions need not be identical. Identical values can stand only once. Like-named read-outs stand apart in the source and are kept apart here. Non-standard residues stand in square brackets, D forms with d. Residues, ends and D or L forms follow the SMILES beside them. *: point of attachment. pY = N[C@@H](Cc1ccc(OP(=O)(O)O)cc1)C(=O)O; Caffeoyl = O=C(/C=C/c1ccc(O)c(O)c1)*

Legend:
Experiment in all cases: biochemical
Type in all cases: binding
SLAP2 = target: T1, SLAP2 (Homo sapiens, UniProt Q9H6Q3); conditions: for remaining activity at 10 µM: read-out: percent of DMSO vehicle control
T1 construct: made in house; host or cells: HEK293 (transient transfection), unpurified extract
T1 sequence (Q9H6Q3 1-261): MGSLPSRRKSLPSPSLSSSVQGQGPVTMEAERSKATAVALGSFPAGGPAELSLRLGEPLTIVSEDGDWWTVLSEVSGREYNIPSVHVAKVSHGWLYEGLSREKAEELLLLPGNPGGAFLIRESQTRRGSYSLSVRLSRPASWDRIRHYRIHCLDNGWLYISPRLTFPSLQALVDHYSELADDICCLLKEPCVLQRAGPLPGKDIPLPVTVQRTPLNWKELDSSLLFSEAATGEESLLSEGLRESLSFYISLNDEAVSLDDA

BLK = target: T2, BLK (Homo sapiens, UniProt P51451); conditions: for remaining activity at 10 µM: read-out: percent of DMSO vehicle control
T2 construct: the DNA-tagged SH2 domain concentrations used in this study were <0.1 nM; made in house; host or cells: HEK293 (transient transfection; unpurified extract)
T2 sequence (P51451 124-220 limits assumed): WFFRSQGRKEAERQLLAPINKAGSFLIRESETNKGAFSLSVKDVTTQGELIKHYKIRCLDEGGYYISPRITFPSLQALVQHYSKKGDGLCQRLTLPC

PLCG2(SH2dom.C-term.) = target: T3, PLCG2(SH2dom.C-term.) (Homo sapiens, UniProt P16885); conditions: for remaining activity at 10 µM: read-out: percent of DMSO vehicle control
T3 construct: SH2dom.C-term. denotes SH2 domain closest to C-terminus of protein; made in house; host or cells: HEK293 (transient transfection, unpurified extract)
T3 sequence (P16885 646-735 limits assumed): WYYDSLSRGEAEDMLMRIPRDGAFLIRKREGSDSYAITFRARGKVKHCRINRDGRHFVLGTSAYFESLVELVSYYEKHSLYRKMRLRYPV

PTPN6(SH2dom.N-term.) = target: T4, PTPN6(SH2dom.N-term.) (Homo sapiens, UniProt P29350); conditions: for remaining activity at 10 µM: read-out: percent of DMSO vehicle control
T4 construct: SH2dom.N-term. denotes SH2 domain closest to N-terminus of protein; made in house; host or cells: HEK293 (transient transfection, unpurified extract)
T4 sequence (P29350 4-100 limits assumed): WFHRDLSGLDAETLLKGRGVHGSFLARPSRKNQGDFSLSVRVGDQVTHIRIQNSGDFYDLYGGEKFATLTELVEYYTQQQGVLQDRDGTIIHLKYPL

PIK3R2(SH2dom.N-term.) = target: T5, PIK3R2(SH2dom.N-term.) (Homo sapiens, UniProt O00459); conditions: for remaining activity at 10 µM: read-out: percent of DMSO vehicle control
T5 construct: SH2dom.N-term. denotes SH2 domain closest to N-terminus of protein; made in house; host or cells: HEK293 (transient transfection, unpurified extract)
T5 sequence (O00459 330-425 limits assumed): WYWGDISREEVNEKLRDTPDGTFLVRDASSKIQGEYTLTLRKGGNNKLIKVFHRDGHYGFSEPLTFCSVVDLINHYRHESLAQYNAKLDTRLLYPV

VAV3 = target: T6, VAV3 (Homo sapiens, UniProt Q9UKW4)
T6 construct: made in house; host or cells: HEK293 (transient transfection), unpurified extract
T6 sequence (Q9UKW4 1-847): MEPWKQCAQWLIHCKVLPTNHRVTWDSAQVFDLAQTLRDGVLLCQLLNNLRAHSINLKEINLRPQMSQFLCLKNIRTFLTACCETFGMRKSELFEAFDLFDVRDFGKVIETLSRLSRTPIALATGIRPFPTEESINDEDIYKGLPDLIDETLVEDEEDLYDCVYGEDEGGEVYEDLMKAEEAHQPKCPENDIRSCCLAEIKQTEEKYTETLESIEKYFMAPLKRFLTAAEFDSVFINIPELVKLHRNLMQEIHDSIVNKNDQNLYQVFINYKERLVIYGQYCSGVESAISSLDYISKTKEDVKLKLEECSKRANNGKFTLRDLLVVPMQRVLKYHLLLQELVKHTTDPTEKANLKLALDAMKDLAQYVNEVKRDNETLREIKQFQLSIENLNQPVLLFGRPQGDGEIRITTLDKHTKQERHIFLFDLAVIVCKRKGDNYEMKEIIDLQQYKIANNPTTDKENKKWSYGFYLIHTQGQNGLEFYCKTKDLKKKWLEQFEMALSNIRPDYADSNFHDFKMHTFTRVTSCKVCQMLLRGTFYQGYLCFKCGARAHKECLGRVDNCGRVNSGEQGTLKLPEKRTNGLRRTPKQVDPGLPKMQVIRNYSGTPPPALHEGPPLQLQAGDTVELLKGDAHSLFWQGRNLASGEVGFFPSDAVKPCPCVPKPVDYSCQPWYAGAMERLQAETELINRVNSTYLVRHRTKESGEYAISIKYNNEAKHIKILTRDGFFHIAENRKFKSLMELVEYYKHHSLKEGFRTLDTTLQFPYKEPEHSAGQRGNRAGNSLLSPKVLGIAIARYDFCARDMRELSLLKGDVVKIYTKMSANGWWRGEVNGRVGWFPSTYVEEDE

GADS = target: T7, GADS (Homo sapiens, UniProt O75791)
T7 construct: the DNA-tagged SH2 domain concentrations used in this study were <0.1 nM; made in house; host or cells: HEK293 (transient transfection; unpurified extract)
T7 sequence (O75791 58-149 limits assumed): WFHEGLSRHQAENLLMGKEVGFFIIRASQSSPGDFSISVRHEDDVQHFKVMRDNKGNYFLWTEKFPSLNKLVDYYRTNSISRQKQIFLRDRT

LCK = target: T8, LCK (Homo sapiens, UniProt P06239)
T8 construct: the DNA-tagged SH2 domain concentrations used in this study were <0.1 nM; made in house; host or cells: HEK293 (transient transfection, unpurified extract)
T8 sequence (P06239 127-224 limits assumed): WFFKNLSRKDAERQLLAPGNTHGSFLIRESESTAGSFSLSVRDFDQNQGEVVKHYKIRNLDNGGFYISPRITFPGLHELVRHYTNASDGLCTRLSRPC

PLCG2(SH2dom.N-term.) = target: T9, PLCG2(SH2dom.N-term.) (Homo sapiens, UniProt P16885); conditions: for remaining activity at 10 µM: read-out: percent of DMSO vehicle control
T9 construct: SH2dom.N-term. denotes SH2 domain closest to N-terminus of protein; made in house; host or cells: HEK293 (transient transfection, unpurified extract)
T9 sequence (P16885 532-635 limits assumed): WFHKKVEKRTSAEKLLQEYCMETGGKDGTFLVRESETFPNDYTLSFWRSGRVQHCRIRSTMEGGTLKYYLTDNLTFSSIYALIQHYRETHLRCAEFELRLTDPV

STAT2 = target: T10, STAT2 (Homo sapiens, UniProt P52630)
T10 construct: made in house; host or cells: HEK293 (transient transfection), unpurified extract
T10 sequence (P52630 whole entry): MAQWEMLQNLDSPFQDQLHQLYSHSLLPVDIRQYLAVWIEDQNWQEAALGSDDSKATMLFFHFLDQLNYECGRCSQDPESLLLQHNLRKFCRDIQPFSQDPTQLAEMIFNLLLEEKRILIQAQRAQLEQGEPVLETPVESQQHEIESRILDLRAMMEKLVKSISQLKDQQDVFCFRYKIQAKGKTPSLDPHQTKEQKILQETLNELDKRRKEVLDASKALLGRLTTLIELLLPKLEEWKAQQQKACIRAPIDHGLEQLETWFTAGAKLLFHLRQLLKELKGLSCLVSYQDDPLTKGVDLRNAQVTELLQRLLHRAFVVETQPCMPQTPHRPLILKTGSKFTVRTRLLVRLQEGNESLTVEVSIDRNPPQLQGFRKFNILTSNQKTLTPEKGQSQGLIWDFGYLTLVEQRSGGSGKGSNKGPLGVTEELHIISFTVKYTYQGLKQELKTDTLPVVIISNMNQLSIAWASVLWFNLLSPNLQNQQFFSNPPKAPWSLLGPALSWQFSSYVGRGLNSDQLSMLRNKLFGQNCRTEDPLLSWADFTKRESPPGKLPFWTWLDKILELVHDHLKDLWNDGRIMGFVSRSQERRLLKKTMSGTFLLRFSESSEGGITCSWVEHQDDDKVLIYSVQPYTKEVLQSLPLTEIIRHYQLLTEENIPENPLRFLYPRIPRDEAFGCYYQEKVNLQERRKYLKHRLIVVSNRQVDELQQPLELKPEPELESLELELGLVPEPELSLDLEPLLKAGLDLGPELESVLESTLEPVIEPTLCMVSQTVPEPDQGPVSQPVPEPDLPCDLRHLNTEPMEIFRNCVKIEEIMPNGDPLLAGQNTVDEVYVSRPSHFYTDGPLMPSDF

[1] = target: T11, STAT3(N567K)-nonphosphorylated (Homo sapiens, UniProt P40763, N567K)
T11 construct: made in house; host or cells: HEK293 (transient transfection), unpurified extract, dephosphorylated by endogenous phosphatases
T11 sequence (P40763 whole entry N567K): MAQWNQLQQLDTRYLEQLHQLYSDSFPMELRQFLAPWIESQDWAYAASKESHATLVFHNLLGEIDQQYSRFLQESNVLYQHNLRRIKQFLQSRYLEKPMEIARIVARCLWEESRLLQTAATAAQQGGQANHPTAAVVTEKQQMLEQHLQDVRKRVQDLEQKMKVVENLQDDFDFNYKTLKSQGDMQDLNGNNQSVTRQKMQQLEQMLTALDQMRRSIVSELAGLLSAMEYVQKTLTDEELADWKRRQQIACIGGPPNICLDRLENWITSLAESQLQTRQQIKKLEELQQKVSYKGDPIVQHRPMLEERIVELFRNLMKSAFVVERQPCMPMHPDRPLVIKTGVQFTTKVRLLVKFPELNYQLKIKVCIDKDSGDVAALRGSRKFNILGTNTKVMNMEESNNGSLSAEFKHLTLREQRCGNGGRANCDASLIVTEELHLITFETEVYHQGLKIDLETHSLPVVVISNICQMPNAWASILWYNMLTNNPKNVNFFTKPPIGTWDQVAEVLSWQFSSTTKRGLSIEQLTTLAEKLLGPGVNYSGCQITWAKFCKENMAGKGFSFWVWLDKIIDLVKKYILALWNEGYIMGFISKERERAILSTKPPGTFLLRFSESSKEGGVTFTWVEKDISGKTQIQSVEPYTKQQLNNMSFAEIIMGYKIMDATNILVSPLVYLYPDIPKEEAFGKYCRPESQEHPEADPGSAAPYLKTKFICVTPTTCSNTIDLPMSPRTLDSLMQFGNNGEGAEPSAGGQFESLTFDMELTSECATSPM

[2] = read-out: percent of DMSO vehicle control
[3] = primary screen, 10 μM, read-out: percent of DMSO vehicle control

Q: What does the source list for `CC[C@H](C)[C@H](NC(=O)[C@H](CCC(=O)O)NC(=O)[C@H](CCC(=O)O)NC(=O)[C@H](Cc1ccc(OP(=O)(O)O)cc1)NC(C)=O)C(=O)N[C@@H](CCC(=O)O)C(N)=O` [Ac-pYEEIE-NH2] (Ac-[pY]EEIE-NH2)?
A: percent of DMSO vehicle control (SLAP2; primary screen, 10 μM): 202.8%; percent of DMSO vehicle control (BLK; primary screen, 10 μM): 47.8%; percent of DMSO vehicle control (PLCG2(SH2dom.C-term.); primary screen, 10 μM): 90.9%; percent of DMSO vehicle control (PTPN6(SH2dom.N-term.); primary screen, 10 μM): 163.9%; percent of DMSO vehicle control (PIK3R2(SH2dom.N-term.); primary screen, 10 μM): 74.1%; percent of DMSO vehicle control (VAV3; primary screen, 10 μM): 75.8%; percent of DMSO vehicle control (GADS; primary screen, 10 μM): 115.5%; percent of DMSO vehicle control (LCK; primary screen, 10 μM): 44.2±3.3%; percent of DMSO vehicle control (PLCG2(SH2dom.N-term.); primary screen, 10 μM): 92.3±3.3%; percent of DMSO vehicle control (STAT2; primary screen, 10 μM): 53.6±1.3%; percent of DMSO vehicle control ([1]; primary screen, 10 μM): 94.9±0.8%

Q: For `CC(=O)N[C@@H](Cc1ccc(CP(=O)(O)O)cc1)C(=O)NC1(C(=O)N[C@@H](CC(N)=O)C(=O)NCCCc2c(O)ccc3ccccc23)CCCCC1` [CGP78850], which remaining activity at 10 µM (SLAP2) is on record?
A: 91.4 ± 15.3%

Q: What about the remaining activity at 10 µM (BLK) of the same compound?
A: 42.1 ± 4.6%

Q: What about the remaining activity at 10 µM (PLCG2(SH2dom.C-term.)) of the same compound?
A: 104 ± 2.7%

Q: And the remaining activity at 10 µM (PTPN6(SH2dom.N-term.))?
A: 112 ± 9.8%

Q: And the remaining activity at 10 µM (PIK3R2(SH2dom.N-term.))?
A: 141 ± 24.2%

Q: What about the Kd (VAV3) of the same compound?
A: 860 nM

Q: What about the percent of DMSO vehicle control at 10 µM (VAV3; [2]) of the same compound?
A: 21.7 ± 3.7%

Q: What about the percent of DMSO vehicle control at 10 µM (GADS; [2]) of the same compound?
A: 42 ± 2.5%

Q: And the percent of DMSO vehicle control at 10 µM (LCK; [2])?
A: 46 ± 3.7%

Q: What about the remaining activity at 10 µM (PLCG2(SH2dom.N-term.)) of the same compound?
A: 87.2 ± 19.7%

Q: And the KD (STAT2; dose-response)?
A: No Hit

Q: What about the percent of DMSO vehicle control at 10 µM (STAT2; [2]) of the same compound?
A: 27.3%

Q: What about the percent of DMSO vehicle control at 10 µM [1, 2] of the same compound?
A: 78.3 ± 2%

Q: What does the source list for `CC[C@H](C)[C@H](NC(=O)[C@H](CCC(=O)O)NC(=O)[C@H](CCC(=O)O)NC(=O)[C@H](Cc1ccc(OP(=O)(O)O)cc1)NC(=O)/C=C/c1ccc(O)c(O)c1)C(=O)N[C@@H](CCC(=O)O)C(=O)O` [Caffeic acid-pYEEIE] (Caffeoyl-[pY]EEIE-OH)?
A: Kd (SLAP2; KD, dose-response): 310 nM and 314 nM; remaining activity at 10 µM (SLAP2): 5.3 ± 3.8%; Kd (BLK): 1.5 ± 0.69 nM; remaining activity at 10 µM (BLK): 0.1%; Kd (PLCG2(SH2dom.C-term.)): 660 ± 700 nM; remaining activity at 10 µM (PLCG2(SH2dom.C-term.)): 1.1 ± 0.1%; remaining activity at 10 µM (PTPN6(SH2dom.N-term.)): 118 ± 19.5%; Kd (PIK3R2(SH2dom.N-term.)): 180 ± 52 nM; remaining activity at 10 µM (PIK3R2(SH2dom.N-term.)): 0%; Kd (VAV3): 70 ± 12 nM; percent of DMSO vehicle control at 10 µM (VAV3; [2]): 0.4 ± 0.1%; percent of DMSO vehicle control at 10 µM (GADS; [2]): 94.8%; Kd (LCK): 3.7 ± 0.62 nM; percent of DMSO vehicle control at 10 µM (LCK; [2]): 0%; Kd (PLCG2(SH2dom.N-term.)): 1070 ± 320 nM; remaining activity at 10 µM (PLCG2(SH2dom.N-term.)): 1.2 ± 0.1%; Kd (STAT2): 3.6 ± 0.18 nM; percent of DMSO vehicle control at 10 µM (STAT2; [2]): 0%; percent of DMSO vehicle control at 10 µM [1, 2]: 91 ± 2.3%

Q: With `O=C(CCl)Nc1cccc(CNC(=O)[C@H](Cc2ccc(OP(=O)(O)O)cc2)NC(=O)Cc2ccc(F)cc2)c1` [MN551] as the compound, how does the remaining activity at 10 µM (SLAP2; primary screen, 10 μM) read?
A: 81.6 ± 2.1%

Q: What about the remaining activity at 10 µM (BLK; primary screen, 10 μM) of the same compound?
A: 116%

Q: What about the remaining activity at 10 µM (PLCG2(SH2dom.C-term.); primary screen, 10 μM) of the same compound?
A: 133%

Q: What about the remaining activity at 10 µM (PTPN6(SH2dom.N-term.); primary screen, 10 μM) of the same compound?
A: 102%

Q: What about the remaining activity at 10 µM (PIK3R2(SH2dom.N-term.); primary screen, 10 μM) of the same compound?
A: 101%

Q: And the remaining activity at 10 µM (VAV3; [3])?
A: 113%

Q: What about the remaining activity at 10 µM (GADS; [3]) of the same compound?
A: 42.9 ± 0.8%

Q: What about the remaining activity at 10 µM (LCK; [3]) of the same compound?
A: 98.7 ± 0.5%

Q: And the remaining activity at 10 µM (PLCG2(SH2dom.N-term.); primary screen, 10 μM)?
A: 109%

Q: And the remaining activity at 10 µM (STAT2; [3])?
A: 217%

Q: And the remaining activity at 10 µM [1, 3]?
A: 86.5 ± 6.2%
